From patent publication US8895032B2, “Dendritic nano-antioxidants” (Central Michigan University, priority 2009, dated 2014)

Columns and labels:
Type in all cases: biochemical
[1] = beta-carotene-linoleate assay; conditions: 50° C., 180 min, 470 nm
Text: The ability of the dendritic antioxidants 1, 2, and 3 to protect linoleic acid against free radical damage was examined by the beta-carotene-linoleate model (Jayaprakasha, G. K., et al. Food Chem. 2001, 73, 285, incorporated herein by reference in its entirety). In the absence of an antioxidant, hydroperoxides formed from linoleic acid oxidation bleach the highly unsaturated beta-carotene by a free-radical-mediated phenomenon. The bleaching of the reddish-orange color of beta-carotene was monitored at 470 nm in the presence of various concentrations of antioxidant. The % absorbance (corrected for control without antioxidant) was determined at each antioxidant concentration after incubation at 50° C. for 180 min. The % A470 nm values were determined as follows: % A470 nm=[(At(180 min)/At(0 min))×100]−[(Ac(180 min)/Ac(0 min))×100], wherein At(180 min)=absorbance at 470 nm of antioxidant sample incubated at 50° C. for 180 min, At(0 min)=absorbance at 470 nm of antioxidant sample incubated at 50° C. for 0 min, Ac(180 min)=absorbance at 470 nm of control sample (without antioxidant) incubated at 50° C. for 180 min, and Ac(0 min)=absorbance at 470 nm of control sample (without antioxidant) incubated at 50° C. for 0 min. […] In FIG. 24, protection of linoleic acid from oxidation by various antioxidants is shown for compound 1 (□), compounds 2 and 3 (•), quercetin (x), and Trolox (Δ).

Human LDL = test: Protection of LDL from AAPH oxidation (agarose gel electrophoresis); conditions: 37° C.
plasmid DNA pBR 322 = test: Protection of plasmid DNA from AAPH damage (agarose electrophoresis); conditions: 10 mM AAPH, 37° C., 4 h

Row | Compound | protection of linoleic acid from oxidation [1] | protection of LDL from AAPH free radicals (anodic migration) (Human LDL; 10 mM AAPH, 18 h) | only concentration effective in protecting LDL (Human LDL; 20 mM AAPH, 21 h) | DNA protection (plasmid DNA pBR 322; 5 μM antioxidant) | DNA protection (S band intensity) (plasmid DNA pBR 322; 11-45 μM antioxidant) | DNA protection (plasmid DNA pBR 322; below 5 μM antioxidant) | protection of LDL at all antioxidant concentrations (Human LDL; 1-30 μM, 20 mM AAPH, 21 h) | DNA protection at all concentrations used (plasmid DNA pBR 322; 0.35-45 μM)
1 | COc1cc(CN(Cc2ccc(CN(Cc3cc(OC)c(O)c(OC)c3)Cc3cc(OC)c(O)c(OC)c3)cc2)Cc2cc(OC)c(O)c(OC)c2)cc(OC)c1O [Compound 1] | most effective | most efficient in protecting LDL | 30 µM | Some protection | well protected | No protection |  | 
2 | Cc1c(C)c2c(c(C)c1O)CCC(C)(C(=O)O)O2 (stereo not drawn) [Trolox, 6-hydroxy-2,5,7,8-tetramethylchroman-2-carboxylic acid] | more effective than compounds 2 and 3 (and quercetin) at lower concentrations |  |  |  |  |  | ineffective | ineffective
